# Results from patent US5312923A, “Process for preparing fibrinogen receptor antagonists” (Merck & Co., Inc., priority 1993, dated 1994).
# Test system: ADP-stimulated platelets
# Experiment: Inhibition of ADP-stimulated platelet aggregation (gel-filtered human platelets)
# Format: cell-based
# Conditions: read-out: IC50 (concentration required to inhibit aggregation by 50% relative to a control lacking the compound), gel-filtered human platelets 2×10^8 per ml, fibrinogen 100 ug/ml, Ca^2+ 1 mM, 10 mM ADP, 37° C.
# Protocol: The activity of these fibrinogen receptor antagonists is illustrated below. One test used to evaluate fibrinogen receptor antagonist activity is based on evaluation of inhibition of ADP-stimulated platelets. Aggregation requires that fibrinogen bind to and occupy the platelet fibrinogen receptor site. Inhibitors of fibrinogen binding inhibit aggregation. […] Platelet aggregation is measured at 37° C. in a Chronolog aggregometer. The reaction mixture contains gel-filtered human platelets (2×10^8 per ml), fibrinogen (100 micrograms per ml (ug/ml)), Ca^2+ (1 mM), and the fibrinogen receptor antagonists tested. The aggregation is initiated by adding […] ADP 1 minute after the other components are added. The reaction is then allowed to proceed for at least 2 minutes. The extent of inhibition of aggregation is expressed as the percentage of the rate of aggregation observed in the absence of inhibitor. […] Inhibition of ADP-stimulated platelets is shown below in Table 1, which compares the concentration (dosage) of fibrinogen receptor antagonist required to inhibit aggregation by 50% relative to a control lacking the fibrinogen receptor antagonist.
row,Compound,IC50 [µM]
1,O=C(O)[C@H](Cc1ccc(OCCCCC2CCNCC2)cc1)NS(=O)(=O)c1ccccc1,0.018
2,CCCCS(=O)(=O)N[C@@H](Cc1ccc(OCCCCC2CCNCC2)cc1)C(=O)O,0.015
3,CS(=O)(=O)N[C@@H](Cc1ccc(OCCCCC2CCNCC2)cc1)C(=O)O,0.063
4,O=C(O)[C@H](Cc1ccc(OCCCCC2CCNCC2)cc1)NS(=O)(=O)CCc1ccccc1,0.029
5,O=C(O)[C@H](Cc1ccc(OCCCCC2CCNCC2)cc1)NS(=O)(=O)Cc1ccccc1,0.018
